Data set [1] has as its target T1, human amylin receptor (amylin 3(a) receptor: human calcitonin receptor + RAMP-3) (Homo sapiens, UniProt O60896+P30988).
T1 construct: expressed in transfected cells; host or cells: BHK570
T1 sequence (P30988 25-474): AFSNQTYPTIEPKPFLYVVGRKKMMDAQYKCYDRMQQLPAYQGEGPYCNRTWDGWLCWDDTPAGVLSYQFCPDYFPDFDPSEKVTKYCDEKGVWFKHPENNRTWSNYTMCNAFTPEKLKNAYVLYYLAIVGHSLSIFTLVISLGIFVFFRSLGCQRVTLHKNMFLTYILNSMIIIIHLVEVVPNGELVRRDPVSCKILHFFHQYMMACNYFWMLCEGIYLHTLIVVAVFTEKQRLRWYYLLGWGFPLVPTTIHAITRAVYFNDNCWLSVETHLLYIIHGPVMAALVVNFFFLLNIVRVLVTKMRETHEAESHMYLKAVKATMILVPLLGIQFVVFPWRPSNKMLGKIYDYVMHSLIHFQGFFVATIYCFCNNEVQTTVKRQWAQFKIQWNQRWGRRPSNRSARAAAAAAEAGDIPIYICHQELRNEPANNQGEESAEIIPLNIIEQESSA
T1 sequence (O60896 24-148 partner): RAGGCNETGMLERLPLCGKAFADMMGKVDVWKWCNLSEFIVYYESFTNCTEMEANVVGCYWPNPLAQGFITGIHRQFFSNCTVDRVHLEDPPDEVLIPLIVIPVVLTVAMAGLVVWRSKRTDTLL
Description: Assay (II)a functional CRE-luciferase assay, human amylin receptor. It counts as cell-based. The settings on record: Table 2; BHK amylin 3(a)-receptor/CRE-luc cells.

Data set [2] concerns the target T2, human calcitonin receptor (Homo sapiens, UniProt P30988).
T2 construct: expressed in transfected cells; host or cells: BHK570
T2 sequence (P30988 25-474): T1 sequence (P30988 25-474)
The data set is described as follows: Assay (II)a functional CRE-luciferase assay, human calcitonin receptor. It counts as cell-based. The settings on record: Table 7; human calcitonin (CTa) receptor.

A short description of data set [3]: Assay (IV) determination of solubility. It counts as physicochemical. Summed up: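 Solubility was profiled across pH 3.0–8.0 after 18 hours at room temperature: a ~500 nmol/ml aqueous polypeptide solution was diluted 1:1 into 100 mM glycylglycine or bistrispropane buffers. After centrifugation, HPLC gave the dissolved concentration.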
Where [4] appears, read: bistrispropane buffer, pH 6, pH 6.0, read-out: Solubility pH 6.0.
Setting [5] is: bistrispropane buffer, pH 6.5, pH 6.5, read-out: Solubility pH 6.5.
Where [6] appears, read: bistrispropane buffer, pH 7, pH 7.0, 18 hours at room temperature, Table 3, read-out: Solubility pH 7.0.
Where [7] appears, read: bistrispropane buffer, pH 7, pH 7.0, Table 8, read-out: Solubility pH 7.0.
The mark [8] stands for this setting: bistrispropane buffer, pH 7, pH 7.0, read-out: Solubility pH 7.0.
Where [9] appears, read: bistrispropane buffer, pH 7.5, pH 7.5, read-out: Solubility pH 7.5.
[10] abbreviates: bistrispropane buffer, pH 8, pH 8.0, read-out: Solubility pH 8.0.
Setting [11] is: glycylglycine buffer, pH 3, pH 3.0, read-out: Solubility pH 3.0.
[12] abbreviates: glycylglycine buffer, pH 4, pH 4.0, 18 hours at room temperature, Table 2, read-out: Solubility pH 4.0.
Where [13] appears, read: glycylglycine buffer, pH 4, pH 4.0, read-out: Solubility pH 4.0.
The mark [14] stands for this setting: glycylglycine buffer, pH 5, pH 5.0, read-out: Solubility pH 5.0.

SMILES strings stand for the structures. Converted amounts (≈) assume the structure as drawn. Read-outs that look alike come from different tables or passages of the source. Starred links: 1 amine or outer side, 2 acyl side, 3 side chain; linkers in the order of their positions; H or OH if unused. Positions of bridges follow the written chain, without caps; N, C: chain ends. Residues, ends and D or L forms follow the SMILES beside them. Groups on a side chain read outwards from the residue. *: point of attachment. C20 diacid = O=C(O)CCCCCCCCCCCCCCCCCCC(=O)*; C18 diacid = O=C(O)CCCCCCCCCCCCCCCCC(=O)*; γGlu = O=C(O)[C@H](CCC(=O)[*:2])N[*:1]; AEEA = NCCOCCOCC(=O)O

We go through three compounds from patent US8722849B2, “Polypeptides” (Novo Nordisk A/S, priority 2011, dated 2014).

Consider `CC[C@H](C)[C@H](NC(=O)[C@H](CCCCNC(=O)COCCOCCNC(=O)COCCOCCNC(=O)CC[C@H](NC(=O)CCCCCCCCCCCCCCCCC(=O)O)C(=O)O)NC(=O)CNC(=O)[C@H](Cc1ccccc1)NC(=O)[C@H](CC(N)=O)NC(=O)[C@H](CC(N)=O)NC(=O)[C@H](CO)NC(=O)[C@H](CO)NC(=O)[C@H](Cc1c[nH]cn1)NC(=O)[C@H](Cc1c[nH]cn1)NC(=O)[C@H](CC(C)C)NC(=O)[C@H](Cc1ccccc1)NC(=O)[C@H](CCC(=O)O)NC(=O)[C@H](C)NC(=O)[C@H](CC(C)C)NC(=O)[C@H](CCCNC(=N)N)NC(=O)[C@H](CCC(N)=O)NC(=O)[C@@H](NC(=O)[C@H](C)NC(=O)[C@@H]1CSSC[C@H](NC(=O)[C@@H](N)CCCCN)C(=O)N[C@@H](CC(N)=O)C(=O)N[C@@H]([C@@H](C)O)C(=O)N[C@@H](C)C(=O)N[C@@H]([C@@H](C)O)C(=O)N1)[C@@H](C)O)C(=O)N[C@@H](CC(C)C)C(=O)N1CCC[C@H]1C(=O)N1CCC[C@H]1C(=O)N[C@H](C(=O)N[C@@H](CC(N)=O)C(=O)N[C@H](C(=O)NCC(=O)N[C@@H](CO)C(=O)N[C@@H](CC(N)=O)C(=O)N[C@H](C(=O)N[C@@H](Cc1ccc(O)cc1)C(N)=O)[C@@H](C)O)C(C)C)[C@@H](C)O` [Example 73, N-epsilon25-[2-(2-{2-[2-(2-{2-[(S)-4-Carboxy-4-(17-carboxyheptadecanoylamino)butyrylamino]ethoxy}ethoxy)acetylamino]ethoxy}ethoxy)acetyl]-[Glu14,His17,Lys25]-pramlintide] (H-KCNTATCATQRLAEFLHHSSNNFGK([AEEA-AEEA-γGlu-C18 diacid])ILPPTNVGSNTY-NH2; disulfide 2-7 (inferred); N-terminus and C-terminus assumed), for which the EC50 in data set [1] stood at 0.0385 nM; in data set [2], 0.045 nM. For the same compound, the solubility at 18 h in data set [3] (setting [4]) is more than 200 µM; in data set [3] (setting [5]), more than 200 µM; in data set [3] (setting [6]) it was 155 µM (≈ 736 µg/mL); in data set [3] (setting [7]), 155 µM (≈ 736 µg/mL); in data set [3] (setting [8]), 155 µM (≈ 736 µg/mL); in data set [3] (setting [9]), 169 µM (≈ 803 µg/mL). Moreover, the solubility at 18 h in data set [3] (setting [10]), in data set [3] (setting [11]), in data set [3] (setting [12]), in data set [3] (setting [13]) and in data set [3] (setting [14]) was more than 200 µM throughout.

Consider `CC[C@H](C)[C@H](NC(=O)[C@@H]1CCCN1C(=O)CNC(=O)[C@H](Cc1ccccc1)NC(=O)[C@H](CC(N)=O)NC(=O)[C@H](CC(N)=O)NC(=O)[C@H](CO)NC(=O)[C@H](CO)NC(=O)[C@H](Cc1c[nH]cn1)NC(=O)[C@H](Cc1c[nH]cn1)NC(=O)[C@H](CC(C)C)NC(=O)[C@H](Cc1ccccc1)NC(=O)[C@H](CCC(=O)O)NC(=O)[C@H](C)NC(=O)[C@H](CC(C)C)NC(=O)[C@H](CCCNC(=N)N)NC(=O)[C@H](CCC(N)=O)NC(=O)[C@@H](NC(=O)[C@H](C)NC(=O)[C@@H]1CSSC[C@H](NC(=O)[C@H](Cc2c[nH]cn2)NC(=O)[C@H](Cc2c[nH]cn2)NC(=O)[C@H](Cc2c[nH]cn2)NC(=O)CC[C@H](NC(=O)CCCCCCCCCCCCCCCCCCC(=O)O)C(=O)O)C(=O)N[C@@H](CC(N)=O)C(=O)N[C@@H]([C@@H](C)O)C(=O)N[C@@H](C)C(=O)N[C@@H]([C@@H](C)O)C(=O)N1)[C@@H](C)O)C(=O)N[C@@H](CC(C)C)C(=O)N1CCC[C@H]1C(=O)N1CCC[C@H]1C(=O)N[C@H](C(=O)N[C@@H](CC(N)=O)C(=O)N[C@H](C(=O)NCC(=O)N[C@@H](CO)C(=O)N[C@@H](Cc1c[nH]cn1)C(=O)N[C@H](C(=O)N[C@@H](Cc1ccc(O)cc1)C(N)=O)[C@@H](C)O)C(C)C)[C@@H](C)O` [Example 31, N-alpha-[(S)-4-Carboxy-4-(19-carboxynonadecanoylamino)butyryl]-His-His-[His1,Glu14,His17,His35]-pramlintide] ({C20 diacid-γGlu}-HHHCNTATCATQRLAEFLHHSSNNFGPILPPTNVGSHTY-NH2; disulfide 4-9 (inferred); C-terminus assumed), for which the EC50 in data set [1] was 0.164 nM; in data set [2], 0.156 nM. For the same compound, the solubility at 18 h in data set [3] (setting [4]) is more than 200 µM; in data set [3] (setting [5]) it was 8 µM (≈ 38.1 µg/mL); in data set [3] (setting [9]) it was 10 µM (≈ 47.6 µg/mL); in data set [3] (setting [10]), 65 µM (≈ 310 µg/mL); in data set [3] (setting [11]), more than 200 µM; in data set [3] (setting [12]), more than 200 µM. For the same compound, the solubility at 18 h in data set [3] (setting [13]) and in data set [3] (setting [14]) was more than 200 µM throughout.

Consider `CC[C@H](C)[C@H](NC(=O)[C@@H]1CCCN1C(=O)CNC(=O)[C@H](Cc1ccccc1)NC(=O)[C@H](CC(N)=O)NC(=O)[C@H](CC(N)=O)NC(=O)[C@H](CO)NC(=O)[C@H](CO)NC(=O)[C@H](Cc1c[nH]cn1)NC(=O)[C@H](Cc1c[nH]cn1)NC(=O)[C@H](CC(C)C)NC(=O)[C@H](Cc1ccccc1)NC(=O)[C@H](CCC(=O)O)NC(=O)[C@H](C)NC(=O)[C@H](CC(C)C)NC(=O)[C@H](CCCNC(=N)N)NC(=O)[C@H](CCC(N)=O)NC(=O)[C@@H](NC(=O)[C@H](C)NC(=O)[C@@H]1CSSC[C@H](NC(=O)[C@H](CCCNC(=N)N)NC(=O)CNC(=O)CC[C@H](NC(=O)CCCCCCCCCCCCCCCCCCC(=O)O)C(=O)O)C(=O)N[C@@H](CC(N)=O)C(=O)N[C@@H]([C@@H](C)O)C(=O)N[C@@H](C)C(=O)N[C@@H]([C@@H](C)O)C(=O)N1)[C@@H](C)O)C(=O)N[C@@H](CC(C)C)C(=O)N1CCC[C@H]1C(=O)N1CCC[C@H]1C(=O)N[C@H](C(=O)N[C@@H](CC(N)=O)C(=O)N[C@H](C(=O)NCC(=O)N[C@@H](CO)C(=O)N[C@@H](CC(N)=O)C(=O)N[C@H](C(=O)N1CCC[C@H]1C(N)=O)[C@@H](C)O)C(C)C)[C@@H](C)O` [Example 101, N-alpha-[(S)-4-Carboxy-4-(19-carboxynonadecanoylamino)butyryl]-Gly-[Arg1,Glu14,His17,Pro37]-pramlintide] ({C20 diacid-γGlu}-GRCNTATCATQRLAEFLHHSSNNFGPILPPTNVGSNTP-NH2; disulfide 3-8 (inferred)), for which the EC50 in data set [1] stood at 0.0515 nM; in data set [2], 0.0455 nM. Also, the solubility at 18 h in data set [3] (setting [4]) was more than 200 µM; in data set [3] (setting [5]), more than 200 µM; in data set [3] (setting [6]) it was more than 200 µM; in data set [3] (setting [7]), more than 200 µM; in data set [3] (bistrispropane buffer, pH 7, pH 7.0, Table 9, read-out: Solubility pH 7.0) it was more than 200 µM; in data set [3] (setting [8]), more than 200 µM. Besides, the solubility at 18 h in data set [3] (bistrispropane buffer, pH 7.5, pH 7.5, Table 9, read-out: Solubility pH 7.5) is more than 200 µM; in data set [3] (setting [9]), more than 200 µM; in data set [3] (setting [10]), more than 200 µM; in data set [3] (setting [11]), more than 200 µM; in data set [3] (setting [12]) it was more than 200 µM; in data set [3] (setting [13]), more than 200 µM. Further, in data set [3] (setting [14]), the solubility at 18 h was more than 200 µM.
